{"source": "patent US9150554B2", "about": "“Fused ring inhibitors of hepatitis C” (Presidio Pharmaceuticals, Inc., priority 2009, dated 2015)", "data": [{"test_system": "HCV 1b_Huh-Luc/Neo-ET cell line persistently expressing a bicistronic genotype 1b replicon in Huh 7 cells", "assay": "HCV replicon assay, luciferase enzyme activity readout", "format": "cell-based", "conditions": "Hepatitis C virus, 72 h incubation, average EC50 range, read-out: Inhibition of HCV genotype 1b", "protocol": "Biological activity of the compounds of the invention was determined using an HCV replicon assay. The HCV 1b_Huh-Luc/Neo-ET cell line persistently expressing a bicistronic genotype 1b replicon in Huh 7 cells was obtained from ReBLikon GMBH. This cell line was used to test compound inhibition using luciferase enzyme activity readout as a measurement of compound inhibition of replicon levels.\nOn Day 1 (the day after plating cells), each compound is added in triplicate to the cells. Plates are incubated for 72 h prior to determining luciferase levels. Enzyme activity was measured using a Bright-Glo Kit (cat. number E2620) manufactured by Promega Corporation. The following equation was used to generate a percent control value for each compound. % Control=(Compound Luciferase Level/Control Luciferase Level)*100\nThe EC50 value was determined using GraphPad Prism and the following equation: Y=Bottom asymptote+(Top asymptote−Bottom asymptote)/(1+10^((Log EC50−X)*HillSlope))\nEC50 values of compounds are determined several times in the replicon assay to generate average EC50 values. […]", "units": {"EC50": "nM"}, "values": [{"compound": "COC(=O)N[C@H](C(=O)N1CCC[C@H]1c1ncc(-c2ccc3nc4cc(-c5cnc([C@@H]6CCCN6C(=O)[C@@H](NC(=O)OC)C(C)C)[nH]5)ccc4nc3c2)[nH]1)C(C)C", "note": "[Compound 1]", "EC50": "< 1"}, {"compound": "COC(=O)N[C@@H](C(=O)N1CCC[C@H]1c1ncc(-c2ccc3nc4cc(-c5cnc([C@@H]6CCCN6C(=O)[C@H](NC(=O)OC)c6ccccc6)[nH]5)ccc4nc3c2)[nH]1)c1ccccc1", "note": "[Compound 2]", "EC50": "< 1"}, {"compound": "COC(=O)N[C@H](C(=O)N1CCC[C@H]1c1ncc(-c2ccc3c(c2)Oc2ccc(-c4cnc([C@@H]5CCCN5C(=O)[C@@H](NC(=O)OC)C(C)C)[nH]4)cc2O3)[nH]1)C(C)C", "note": "[Compound 3]", "EC50": "< 1"}, {"compound": "COC(=O)N[C@H](C(=O)N1CCC[C@H]1c1ncc(-c2ccc3c(c2)Cc2cc(-c4cnc([C@@H]5CCCN5C(=O)[C@@H](NC(=O)OC)C(C)C)[nH]4)ccc2O3)[nH]1)C(C)C", "note": "[Compound 4]", "EC50": "10 to 999"}, {"compound": "COC(=O)N[C@@H](C(=O)N1CCC[C@H]1c1ncc(-c2ccc3c(c2)Cc2cc(-c4cnc([C@@H]5CCCN5C(=O)[C@H](NC(=O)OC)c5ccccc5)[nH]4)ccc2O3)[nH]1)c1ccccc1", "note": "[Compound 5]", "EC50": "< 1"}, {"compound": "COC(=O)N[C@H](C(=O)N1CCC[C@H]1c1ncc(-c2ccc3c(c2)Cc2ccc(-c4cnc([C@@H]5CCCN5C(=O)[C@@H](NC(=O)OC)C(C)C)[nH]4)cc2O3)[nH]1)C(C)C", "note": "[Compound 6]", "EC50": "< 1"}, {"compound": "COC(=O)N[C@H](C(=O)N1CCC[C@H]1c1ncc(-c2ccc3c(c2)CCc2cc(-c4cnc([C@@H]5CCCN5C(=O)[C@@H](NC(=O)OC)C(C)C)[nH]4)ccc2O3)[nH]1)C(C)C", "note": "[Compound 7]", "EC50": "< 1"}, {"compound": "COC(=O)N[C@H](C(=O)N1CCC[C@H]1c1ncc(-c2ccc3c(=O)c4cc(-c5cnc([C@@H]6CCCN6C(=O)[C@@H](NC(=O)OC)C(C)C)[nH]5)ccc4oc3c2)[nH]1)C(C)C", "note": "[Compound 8]", "EC50": "< 1"}, {"compound": "CC(C)(C)OC(=O)N1CCC[C@H]1c1ncc(-c2ccc3c(=O)c4cc(-c5cnc([C@@H]6CCCN6C(=O)OC(C)(C)C)[nH]5)ccc4oc3c2)[nH]1", "note": "[Compound 9]", "EC50": "10 to 999"}, {"compound": "COC(=O)N[C@H](C(=O)N1CCC[C@H]1c1ncc(-c2ccc3c(c2)Oc2ccc(-c4cnc([C@@H]5CCCN5C(=O)[C@@H](NC(=O)OC)C(C)C)[nH]4)cc2C3(C)C)[nH]1)C(C)C", "note": "[Compound 10]", "EC50": "< 1"}, {"compound": "COC(=O)N[C@H](C(=O)N1CCC[C@H]1c1ncc(-c2ccc3c(c2)c(=O)c2ccc(-c4cnc([C@@H]5CCCN5C(=O)[C@@H](NC(=O)OC)C(C)C)[nH]4)cc2n3C)[nH]1)C(C)C", "note": "[Compound 11]", "EC50": "< 1"}, {"compound": "COC(=O)N[C@H](C(=O)N1CCC[C@H]1c1ncc(-c2ccc3c(c2)CCc2ccc(-c4cnc([C@@H]5CCCN5C(=O)[C@@H](NC(=O)OC)C(C)C)[nH]4)cc2O3)[nH]1)C(C)C", "note": "[Compound 12]", "EC50": "< 1"}, {"compound": "COC(=O)N[C@H](C(=O)N1CCC[C@H]1c1ncc(-c2ccc3c(c2)CN(C)c2ccc(-c4cnc([C@@H]5CCCN5C(=O)[C@@H](NC(=O)OC)C(C)C)[nH]4)cc2CN3C)[nH]1)C(C)C", "note": "[Compound 13]", "EC50": "< 1"}, {"compound": "COC(=O)N[C@H](C(=O)N1CCC[C@H]1c1ncc(-c2ccc3c(c2)Oc2ccc(-c4cnc([C@@H]5CCCN5C(=O)[C@@H](NC(=O)OC)C(C)C)[nH]4)cc2C(=O)N3)[nH]1)C(C)C", "note": "[Compound 14]", "EC50": "10 to 999"}, {"compound": "COC(=O)N[C@H](C(=O)N1CCC[C@H]1c1ncc(-c2ccc3c(=O)c4cc(-c5cnc([C@@H]6CCCN6C(=O)[C@H](NC(=O)OC)c6ccccc6)[nH]5)ccc4oc3c2)[nH]1)C(C)C", "note": "[Compound 15]", "EC50": "< 1"}, {"compound": "COC(=O)N[C@H](C(=O)N1CCC[C@H]1c1ncc(-c2ccc3c(=O)c4cc(-c5cnc([C@@H]6CCCN6C(=O)[C@@H](NC(=O)OC)C6CCOCC6)[nH]5)ccc4oc3c2)[nH]1)C(C)C", "note": "[Compound 16]", "EC50": "< 1"}, {"compound": "COC(=O)N[C@H](C(=O)N1CCC[C@H]1c1ncc(-c2ccc3oc4cc(-c5cnc([C@@H]6CCCN6C(=O)[C@@H](NC(=O)OC)C6CCOCC6)[nH]5)ccc4c(=O)c3c2)[nH]1)C(C)C", "note": "[Compound 17]", "EC50": "< 1"}, {"compound": "COC(=O)N[C@H](C(=O)N1CCC[C@H]1c1ncc(-c2ccc3oc4cc(-c5cnc([C@@H]6CCCN6C(=O)[C@H](NC(=O)OC)c6ccccc6)[nH]5)ccc4c(=O)c3c2)[nH]1)C(C)C", "note": "[Compound 18]", "EC50": "< 1"}, {"compound": "COC(=O)N[C@H](C(=O)N1CCC[C@H]1c1ncc(-c2ccc3c(=O)c4cc(-c5cnc([C@@H]6CCCN6C(=O)[C@H](NC(=O)OC6CCOCC6)c6ccccc6)[nH]5)ccc4oc3c2)[nH]1)C(C)C", "note": "[Compound 19]", "EC50": "< 1"}, {"compound": "COC(=O)N[C@@H](C)C(=O)N1CCC[C@H]1c1ncc(-c2ccc3oc4cc(-c5cnc([C@@H]6CCCN6C(=O)[C@@H](NC(=O)OC)C(C)C)[nH]5)ccc4c(=O)c3c2)[nH]1", "note": "[Compound 20]", "EC50": "< 1"}, {"compound": "COC(=O)N[C@H](C(=O)N1CCC[C@H]1c1ncc(-c2ccc3oc4cc(-c5cnc([C@@H]6CCCN6C(=O)[C@H](NC(=O)OC6CCOCC6)c6ccccc6)[nH]5)ccc4c(=O)c3c2)[nH]1)C(C)C", "note": "[Compound 21]", "EC50": "< 1"}, {"compound": "COC(=O)N[C@H](C(=O)N1CCC[C@H]1c1ncc(-c2ccc3oc4cc(-c5cnc([C@@H]6CCCN6C(=O)[C@@H](NC(=O)OC)C(C)C)[nH]5)c(F)cc4c(=O)c3c2)[nH]1)C(C)C", "note": "[Compound 22]", "EC50": "< 1"}, {"compound": "COC(=O)N[C@H](C(=O)N1CCC[C@H]1c1ncc(-c2ccc3oc4cc(-c5cnc([C@@H]6CCCN6C(=O)[C@@H](NC(=O)OC)C6CCOCC6)[nH]5)c(F)cc4c(=O)c3c2)[nH]1)C1CCOCC1", "note": "[Compound 23]", "EC50": "< 1"}, {"compound": "COC(=O)N[C@@H](C(=O)N1CCC[C@H]1c1ncc(-c2ccc3oc4cc(-c5cnc([C@@H]6CCCN6C(=O)[C@H](NC(=O)OC)c6ccccc6)[nH]5)c(F)cc4c(=O)c3c2)[nH]1)c1ccccc1", "note": "[Compound 24]", "EC50": "< 1"}, {"compound": "O=C(N[C@@H](C(=O)N1CCC[C@H]1c1ncc(-c2ccc3oc4cc(-c5cnc([C@@H]6CCCN6C(=O)[C@H](NC(=O)OC6CCOCC6)c6ccccc6)[nH]5)c(F)cc4c(=O)c3c2)[nH]1)c1ccccc1)OC1CCOCC1", "note": "[Compound 25]", "EC50": "< 1"}, {"compound": "COC(=O)N[C@H](C(=O)N1CCC[C@H]1c1ncc(-c2ccc3c(c2)Oc2ccc(-c4cnc([C@@H]5CCCN5C(=O)[C@@H](NC(=O)OC)C(C)C)[nH]4)cc2C32CC2)[nH]1)C(C)C", "note": "[Compound 26]", "EC50": "< 1"}, {"compound": "COC(=O)N[C@H](C(=O)N1CCC[C@H]1c1ncc(-c2cc3oc4ccc(-c5cnc([C@@H]6CCCN6C(=O)[C@H](NC(=O)OC)c6ccccc6)[nH]5)cc4c(=O)c3cc2F)[nH]1)C(C)C", "note": "[Compound 27]", "EC50": "< 1"}, {"compound": "COC(=O)N[C@H](C(=O)N1CCC[C@H]1c1ncc(-c2cc3oc4ccc(-c5cnc([C@@H]6CCCN6C(=O)[C@@H](NC(=O)OC)C6CCOCC6)[nH]5)cc4c(=O)c3cc2F)[nH]1)C(C)C", "note": "[Compound 28]", "EC50": "< 1"}, {"compound": "COC(=O)N[C@H](C(=O)N1CCC[C@H]1c1ncc(-c2cc3c(cc2F)Cc2cc(-c4cnc([C@@H]5CCCN5C(=O)[C@@H](NC(=O)OC)[C@@H](C)OC)[nH]4)ccc2O3)[nH]1)C(C)C", "note": "[Compound 29]", "EC50": "< 1"}, {"compound": "COC(=O)N[C@H](C(=O)N1CCC[C@H]1c1ncc(-c2ccc3c(c2)Cc2ccc(-c4cnc([C@@H]5CCCN5C(=O)[C@@H](NC(=O)OC)[C@@H](C)OC)[nH]4)cc2O3)[nH]1)[C@@H](C)OC", "note": "[Compound 30]", "EC50": "< 1"}, {"compound": "CC[C@H](C)[C@H](NC(=O)OC)C(=O)N1CCC[C@H]1c1ncc(-c2ccc3c(c2)Cc2ccc(-c4cnc([C@@H]5CCCN5C(=O)[C@@H](NC(=O)OC)[C@@H](C)CC)[nH]4)cc2O3)[nH]1", "note": "[Compound 31]", "EC50": "< 1"}]}]}
